Where two headings read alike, the source gives them in different places.

We go through four compounds from patent publication US6583149B1, “Method for the treatment or prevention of viral infection using nucleoside analogues” (BioChem Pharma Inc., priority 1999, dated 2003).

For one series, the system named is HSV-1. Kind of series: Herpes simplex virus plaque reduction assay in Vero34 cells. Type of series: cell-based. As to conditions: Human alphaherpesvirus 1, 72 h, 3 days. As to the method: In 12 wells tissue culture dishes, 2×10^5 Vero34 cells were seeded in 2 mls of DMEM supplemented with 10% […]. The plate was incubated in 5% CO2/air at 37° C. overnight. The medium was removed and cells were inoculated with 200 PFU of HSV-1 diluted in a final volume of 0.5 ml DMEM supplemented with 2% FES. After adsorption at 37° C. for 1 hour, the viruses were removed and the cell monolayers were overlaid with 1 ml of DMEM-2% FES containing the test compound at final concentrations of 0.1, 1.0, 10, and 50 ug/ml. Acyclovir was used as a positive control. Uninfected and infected untreated monolayers were also included in the assay as controls. All compounds were tested in duplicates. After an incubation at 37° C. in 5% CO2/air for 3 days, cells were fixed with the addition of one volume of formaldehyde 8%/water for 30 min. The formaldehyde/medium was removed and the monolayers were stained with crystal violet 2%/ethanol 20% for few sec. The cells were rinsed with tap water and the monolayers were examined for the presence of plaques under a microscope.
In general terms: Plaque reduction counts the foci of infection that form in a cell layer.

The next series has as its system Vero34 cells. Type of series: cell-based. As to conditions: African green monkey, 48 h. Here is the method:
The CD50 value (cytotoxic dose at 50%) was assessed on virus-free control layers of cells to assess the toxicity of the compounds.
Flat bottom 96 well plates were plated with 5×1OE3 Vero-34 cells/well and 1×10E4 Hs-68 or Wi-38 cells/well respectively and incubated overnight at 37° C. and 5% CO2/air. After incubation, the supernatant medium was removed and replaced with test compound dilutions in 2% DMEM (150 ul). The cells were then incubated 48 hours in a 5% CO2 incubator at 37° C.
50 μl/well of 10 uCi/ml solution of [3H]-methyl thymidine (specific activity of approx. 2 Ci/mmol) was added to the culture medium and incubated overnight (18 hours) in a 5% CO2 incubator at 37° C.
Cells were then collected onto a fiberglass filter (Printed Filtermat A 1450-421 Wallac) with a Tomtec cell harvester. Suspended cells were collected directly onto filter while for adherent cells, the medium was first removed, then the cells washed with PBS and trypsinized for 2-3 minutes (50 μl trypsin/well) before collecting.
Filters were dried for 1 hour at 37-40° C. and then placed into bags (1450-microbeta #1450-432 Wallac) with 4.5 ml of Betascint and counts obtained with Microbeta 1450 Wallac (protocol 1).
(§1) The percent of cell proliferation was determined by comparison to the control (no test compound) and thereby establishing 50% inhibitory concentration is established.

A further series has as its system RSV and CMV viruses. The series is described as follows: Case report: immune suppressed leukemia patient with RSV and CMV pneumonias in troxacitabine phase I study. In kind it is in vivo, human. The conditions noted are these: one elderly patient with relapsed resistant acute myeloid leukemia, also treated for RSV and CMV infections. Here is the method: An elderly patient with relapsed resistant acute myeloid leukemia was entered in a troxacitabine (compound #1) as phase I Leukemia study. In the early part of the therapy, the patient, known to be immune suppressed, developed severe pneumonias. […] The patient to was maintained in the troxacitabine study and was treated for RSV and CMV viral infections.

In the next series the test system is Hs68 cells. Kind of series: Toxicity (CD50) reported with the CMV assay. Type of series: cell-based, human. As to conditions: reported with HCMV assay. Here is the method: Cells were then collected onto a fiberglass filter (Printed Filtermat A 1450-421 Wallac) with a Tomtec cell harvester.
as §1

A further series deals with HCMV. Kind of series: CMV plaque reduction assay in Hs68 cells. In kind it is cell-based, human cytomegalovirus. As to conditions: 8 days, read-out: HCMV-1 IC50. Here is the method:
In 12-well tissue culture dishes, 1.5×10E5 or Hs68 cells (human […] fibroblast cell line) were plated per well with 2 ml of DMEM 10% fetal bovine serum and incubated in 5% CO2/air at 37° C. overnight or until cells were ready. The medium was then removed and the cells inoculated with 0.5 ml (containing 200 pfu/ml diluted in DMEM 2% FBS) of HCMV virus in each well. After adsorption at 37° C. for 2 hours, the virus was removed and cell monolayers were overlaid (1 ml) with DMEM 2% FBS containing test compounds at various concentrations. The cells were then incubated at 37° C. for 8 days, and then fixed with one volume (1 ml) of formaldehyde 8%/water or PBS 1× for 30 minutes. The formaldehyde solution was removed and the cell monolayers were stained with crystal violet 2%/EtOH 20% for a few seconds and then rinsed with water. Monolayers were examined for the presence of plaques under a microscope, the percentage of plaque reduction determined for each compound by comparison with the untreated cells (no test compound) and the 50% inhibitory concentration (IC50) established. DHPG was used as a positive control. Note: DMEM medium contained 1% glutamine and 1% pen/strep

A word on the IC50: it is the concentration that gives 50% inhibition. `Nc1nc2c(ncn2COCCO)c(=O)[nH]1` [ACYCLOVIR, reference compound]: the IC50 in the series on HSV-1 was determined as 13.3 µM. Besides, in the series on Vero34 cells, the “toxicity CD50” value was over 13.3 µM.

Regarding `Nc1ccn([C@@H]2CO[C@H](CO)O2)c(=O)n1` [COMPOUND #1, (−)-cis-2-Hydroxymethyl-4-(cytosin-1′-yl)-1,3-dioxolane], in the series with RSV and CMV viruses, the “Clinical outcome of viral pneumonias (RSV and CMV)” value is given as “did recover from their pneumonias”. In addition, the IC50 in the series with HSV-1 was found to be 1.7 µM; in the series on HCMV (Human betaherpesvirus 5, 192 h) it was 0.7 µM. Further, the “toxicity CD50” value in the series on Vero34 cells and with Hs68 cells was over 50 µM each time.

Regarding `Nc1ncn([C@@H]2CO[C@H](CO)O2)c(=O)n1` [COMPOUND #3, (−)cis-2-Hydroxymethyl-4-(5′-azacytosin-1′-yl)-1,3-Dioxolane], in the series with HSV-1, the half-maximal inhibitory concentration (IC50) is 47 to 234 µM.

`Nc1nc2c(ncn2COC(CO)CO)c(=O)[nH]1` [DHPG, reference compound]: in the series on HCMV, the IC50 worked out at 9.8 µM.
